Source: patent US7625892B2, “Pharmaceutical compositions for the treatment of diseases related to neurotrophines” (Mimetech S.r.l., priority 2002, dated 2009)
pKd: −log10 of the molar value. Where two headings read alike, the source gives them in different places.

Key:
VGF = experiment: Induction of VGF production by PC12 cells (western blot); type: cell-based; conditions: FIG. 3
Experimental: The ability of 3-aza-bicyclo(3.2.1)octanes of formula (I) and their dimeric forms of formula (II) and (III) with substitution reported in Table 1-4 was tested also as ability to induce VGF production by PC12 cells. […] Cells were lysed in 0.25% NP-40 in PBS supplemented with 1 mM PMSF (phenyl-methyl) and 1 mM leupeptin and protein concentration was measured in each sample by Bradford assay. Equal amounts of proteins (30 μg) were loaded in 8% SDS-polyacrilamide gel, electrophoresed, blotted onto nitrocellulose membrane and stained with monoclonal antibodies anti-VGF followed by peroxidase-conjugated anti-mouse IgG. Reaction was visualized by Enhanced Chemiluminiscent Reagent (ECL, Amersham) following the manufacturer instruction.
VGF is induced by the selected compounds as well as by hrNGF.

[1] = test system: NGF specific surface receptor on PC12 cells; experiment: Displacement of 125I-NGF binding to PC12 cells; conditions: 0.1 nM 125I-NGF
Experimental: The ability of selected compounds to displace the binding of NGF to specific surface receptor was evaluated through the classic binding techniques of iodinated ligand.
PC12 cells were detached from tissue flasks with PBS-EDTA, washed with HKR medium (10 mM Hepes, 125 mM NaCl, 4.8 mM KCl, 1.3 mM CaCl2, 1.2 mM MgSO4, 1.2 mM KH2PO4, 1 g/l glucose, 1 g/l BSA) and incubated in triplicate in HKR medium with 0.1 nM ^125I-NGF in the presence or absence of variable concentrations of the compounds to be assayed or of hrNGF as internal standard. Displacement curve was obtained by analyzing the resultant cell bound radioactivity in the presence of the compounds or of hrNGF with adequate software (Graphit 4).

Trk-A = target: T1, Trk-A (Rattus norvegicus, UniProt P35739); experiment: Trk-A autophosphorylation in PC12 cells; type: cell-based; conditions: 10 μM compound, 30 min, FIG. 5
T1 construct: endogenous in cells; host or cells: PC12 cells
T1 sequence (P35739 33-799): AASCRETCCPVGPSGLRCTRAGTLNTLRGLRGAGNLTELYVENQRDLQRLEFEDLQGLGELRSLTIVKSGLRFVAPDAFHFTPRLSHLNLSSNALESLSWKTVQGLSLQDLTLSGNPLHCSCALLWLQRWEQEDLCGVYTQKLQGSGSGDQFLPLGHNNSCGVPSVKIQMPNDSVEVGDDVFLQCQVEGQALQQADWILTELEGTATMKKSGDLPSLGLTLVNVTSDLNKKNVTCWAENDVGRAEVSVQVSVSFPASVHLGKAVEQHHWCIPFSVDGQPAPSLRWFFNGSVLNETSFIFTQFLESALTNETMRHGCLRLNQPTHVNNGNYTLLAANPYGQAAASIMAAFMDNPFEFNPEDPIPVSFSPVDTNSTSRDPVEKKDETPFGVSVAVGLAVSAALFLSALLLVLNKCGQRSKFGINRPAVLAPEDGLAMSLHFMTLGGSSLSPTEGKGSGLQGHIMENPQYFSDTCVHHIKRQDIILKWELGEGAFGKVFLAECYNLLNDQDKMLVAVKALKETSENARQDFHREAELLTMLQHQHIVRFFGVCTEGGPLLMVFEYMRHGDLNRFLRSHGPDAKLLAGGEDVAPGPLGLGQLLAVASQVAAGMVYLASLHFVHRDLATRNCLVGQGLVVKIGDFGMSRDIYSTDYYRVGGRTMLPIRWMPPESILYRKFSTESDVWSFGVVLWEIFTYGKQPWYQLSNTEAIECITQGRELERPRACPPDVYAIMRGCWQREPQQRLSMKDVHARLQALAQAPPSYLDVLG
Experimental: To evaluate the ability of the compounds 3-aza-bicyclo(3.2.1)octanes of formula (I) and their dimeric forms of formula (II) and (III) reported in Table 14 to induce Trk-A autophosphorylation, PC12 cells were cultured in medium supplemented with 5% FBS for 48 hours, washed and equilibrated in serum-free medium for 2 hours. 2.5×10^6 cells were then stimulated with 10 μM of selected compounds for 30 min or with 10 nM hrNGF as positive control. Cells were then lysed with 0.5% Triton-X100 in PBS supplemented with protease inhibitors (PMSF, aprotinin, pepstatin, leupeptin) and phosphatase inhibitors. Protein concentrations in each sample was evaluated by Bradford assay and equal amounts (50 μg) of proteins were loaded onto SDS-polyacrilamide gel, electrophoresed and blotted onto nitrocellulose membrane. Membranes was stained with rabbit anti-(Tyr 490 and Tyr 674/675) phosphorylated Trk-A (Cell Signaling Technology) used at the final dilution of 1:1000. After washing, membranes were stained with HRP-conjugated anti-rabbit IgG and the reaction was visualised by using ECL reagents following manufacturing instructions.

Row | Molecule | VGF production induced (VGF; 10 μM compound) | pKd ([1]; FIG. 4a, read-out: Kd (displacement curve, compound used as competitor)) | induction of Trk-A autophosphorylation (Trk-A) | VGF production induced (VGF; 10 nM hrNGF) | pKd ([1]; FIG. 4b, read-out: Kd (displacement curve, hrNGF as competitor))
1 | COC(=O)C1OC2OC1C(=O)N(Cc1ccccc1)C2Cc1ccccc1 (centres unmarked) [Compound 9] | induced | 6.78 | able to induce Trk-A autophosphorylation |  | 
2 | hrNGF: human recombinant (hr)NGF used as internal standard |  |  |  | induced | 9.94
